From ChEMBL document CHEMBL3885881, “DrugMatrix”

Organism: Rattus norvegicus
Experiment: DrugMatrix - Regimen: Daily Repeat
Format: toxicity, organism-based, Sprague-Dawley
Parameters: regimen Daily Repeat, gender Male, age 6-8 weeks
Conditions: in vivo, po, 20 mg/kg, tissue Plasma, route oral GAVAGE, dose level Low, vehicle 100 % WATER

For `COc1ccc(CCN(C)CCCC(C#N)(c2ccc(OC)c(OC)c2)C(C)C)cc1OC` (configuration not stated), which POTASSIUM (72 h, time 3 day) is on record?
Its POTASSIUM is 6.68 MEQ/L.

And the POTASSIUM (120 h, time 5 day)?
The POTASSIUM was 6.29 MEQ/L.
